Assay results published in US20250161307A1, “PYRAZOLOPYRIMIDINES AS MODULATORS OF SPERMINE OXIDASE” (Janssen Pharmaceutica NV, priority 2022, published 2025).
Counter-ions that a name gives are not always drawn.

Legend:
[1] = molecular target: SMOX (Homo sapiens (Human), UniProt Q9NWM0); experiment: Human SMOX assay (HyPerBlu chemiluminescent detection of hydrogen peroxide); type: biochemical; details: 2.5 nM full length hSMOX, spermine substrate, 1 h at room temperature, luminescence read; read-out: SMOx_IC50
SMOX, sequence (Q9NWM0 whole entry): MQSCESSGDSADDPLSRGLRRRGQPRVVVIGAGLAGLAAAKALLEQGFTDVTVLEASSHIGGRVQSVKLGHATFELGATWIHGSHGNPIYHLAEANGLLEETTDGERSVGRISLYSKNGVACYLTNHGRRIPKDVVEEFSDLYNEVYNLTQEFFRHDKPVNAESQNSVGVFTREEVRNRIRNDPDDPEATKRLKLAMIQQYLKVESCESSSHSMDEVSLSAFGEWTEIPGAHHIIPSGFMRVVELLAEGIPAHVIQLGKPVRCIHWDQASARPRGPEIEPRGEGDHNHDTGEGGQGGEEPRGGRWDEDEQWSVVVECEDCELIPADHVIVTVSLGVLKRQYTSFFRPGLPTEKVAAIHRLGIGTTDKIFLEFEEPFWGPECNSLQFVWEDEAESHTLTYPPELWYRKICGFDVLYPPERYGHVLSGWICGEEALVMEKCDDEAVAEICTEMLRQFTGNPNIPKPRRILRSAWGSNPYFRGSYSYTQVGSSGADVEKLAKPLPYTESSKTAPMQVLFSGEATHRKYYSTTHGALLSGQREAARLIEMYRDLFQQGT
Method: (§1) The direct detection of hydrogen peroxide produced from the enzymatic reaction of hSMOX or hPAOX in a biochemical assay format was measured using HyPerBlu (Lumigen, Southfield, MI), a small molecule boronate probe that reacts with hydrogen peroxide to generate a chemiluminescent signal. Inhibition of hSMOX or hPAOX enzyme results in a decrease in luminescence.
Test compounds (75 nL) dissolved in DMSO were added to a 384-well white assay plate (Greiner Bio-one, catalog #784075) using an ECHO Acoustic Dispenser (Labcyte). Each compound was serially diluted 3-fold in DMSO to prepare an 11-point dose response curve (columns 1-22). Column 23 and 24 contained 75 nL of 2 mM chlorhexidine and DMSO, respectively, to represent the 100% inhibited versus the neutral control reactions.
Subsequently, 3 μL/well of the substrate solution prepared in assay buffer (10 mM Hepes, pH 7.4, 150 mM NaCl, 1 mM EGTA, 0.01% Pluronic F-127, 0.05% ovalbumin) was dispensed into the assay plate followed by 3 μL/well of full length hSMOX enzyme with an N-terminal His tag from E. coli prepared in assay buffer to initiate the reactions. After a 1 h incubation at room temperature, 6 μL/well of HyPerBlu was added. After a 30 min incubation, the hydrogen peroxide product generated from the hSMOX reactions was measured using an endpoint luminescence read on the PHERAStar FS/FSX microplate reader (BMG LABTECH).
The final assay conditions included 10 mM Hepes, pH 7.4, 150 mM NaCl, 1 mM EGTA, 0.01% Pluronic F-127, 0.05% ovalbumin, 2.5 nM hSMOX, 30 µM spermine, and 1.25% DMSO.
Dose-response curves were fit and compound IC50 values were determined using Genedata Screener (Genedata AG).

[2] = molecular target: hPAOX (Homo sapiens (Human), UniProt Q6QHF9); experiment: Human PAOX assay (HyPerBlu chemiluminescent detection of hydrogen peroxide); type: biochemical; details: 60 pM recombinant PAOX, 20 μM N-acetylspermine substrate
hPAOX, sequence (Q6QHF9 whole entry): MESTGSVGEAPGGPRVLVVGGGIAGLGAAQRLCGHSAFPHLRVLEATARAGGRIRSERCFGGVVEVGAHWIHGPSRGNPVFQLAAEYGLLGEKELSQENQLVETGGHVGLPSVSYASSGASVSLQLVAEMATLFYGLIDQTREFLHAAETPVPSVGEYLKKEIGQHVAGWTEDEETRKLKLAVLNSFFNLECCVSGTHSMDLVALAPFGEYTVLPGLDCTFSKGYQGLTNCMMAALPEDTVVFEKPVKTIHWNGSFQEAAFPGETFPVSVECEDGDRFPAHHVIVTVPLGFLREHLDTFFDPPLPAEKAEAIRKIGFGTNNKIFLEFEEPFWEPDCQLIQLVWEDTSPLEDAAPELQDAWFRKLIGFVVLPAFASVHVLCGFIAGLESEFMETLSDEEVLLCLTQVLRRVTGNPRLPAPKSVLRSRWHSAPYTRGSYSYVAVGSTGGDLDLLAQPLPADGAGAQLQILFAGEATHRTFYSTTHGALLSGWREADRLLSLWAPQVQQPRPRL
Method: as §1
The hPAOX assay was run and the data analyzed similarly to the hSMOX assay described above, except the reactions contained 60 pM recombinant PAOX with an N-terminal His tag expressed from sf9 insect cells and used 20 μM N-acetylspermine as the substrate.

SMILES	IC50 [1] [nM]	IC50 [2] [nM]
CN1CC(NC(=O)c2cc3nc(-c4ccccc4)cc(-c4ncccn4)n3n2)C1 [Example 93, N-(1-methylazetidin-3-yl)-5-phenyl-7-(pyrimidin-2-yl)pyrazolo[1,5-a]pyrimidine-2-carboxamide]	996	643
CN1CC(NC(=O)c2cc3nc(N4CCCC4)cc(-c4ccccc4)n3n2)C1 [Example 98, N-(1-methylazetidin-3-yl)-7-phenyl-5-(pyrrolidin-1-yl)pyrazolo[1,5-a]pyrimidine-2-carboxamide]	4590	> 31200
CN1CC(NC(=O)c2cc3nc(N4CCCCC4)cc(-c4ccccc4)n3n2)C1 [Example 99, N-(1-methylazetidin-3-yl)-7-phenyl-5-(piperidin-1-yl)pyrazolo[1,5-a]pyrimidine-2-carboxamide]	7710	7080
CN1CC(NC(=O)c2cc3nc(N4CCC4)cc(-c4ccccc4)n3n2)C1 [Example 100, 5-(azetidin-1-yl)-N-(1-methylazetidin-3-yl)-7-phenylpyrazolo[1,5-a]pyrimidine-2-carboxamide]	4010	> 31200
CN1CC(NC(=O)c2cc3nc(-c4ccccn4)cc(-c4ccccc4)n3n2)C1 [Example 102, N-(1-methylazetidin-3-yl)-7-phenyl-5-(pyridin-2-yl)pyrazolo[1,5-a]pyrimidine-2-carboxamide]	1550	10000
CN1CC(NC(=O)c2cc3nc(-c4ccccc4C(F)(F)F)cc(-c4ccccc4)n3n2)C1 [Example 103, N-(1-methylazetidin-3-yl)-7-phenyl-5-(2-(trifluoromethyl)phenyl)pyrazolo[1,5-a]pyrimidine-2-carboxamide]	3120	547
CN1CC(NC(=O)c2cc3nc(-c4ccccc4F)cc(-c4ccccc4)n3n2)C1 [Example 104, 5-(2-fluorophenyl)-N-(1-methylazetidin-3-yl)-7-phenylpyrazolo[1,5-a]pyrimidine-2-carboxamide]	1290	1400
CN1CC(NC(=O)c2cc3nc(-c4cccc(F)c4)cc(-c4ccccc4)n3n2)C1 [Example 105, 5-(3-fluorophenyl)-N-(1-methylazetidin-3-yl)-7-phenylpyrazolo[1,5-a]pyrimidine-2-carboxamide]	114	666
CN1CC(NC(=O)c2cc3nc(-c4ccc(F)cc4)cc(-c4ccccc4)n3n2)C1 [Example 106, 5-(4-fluorophenyl)-N-(1-methylazetidin-3-yl)-7-phenylpyrazolo[1,5-a]pyrimidine-2-carboxamide]	164	485
O=C(NC1CNC1)c1cc2nc(-c3ccccc3)cc(-c3ccccc3)n2n1 [Example 115, N-(azetidin-3-yl)-5,7-diphenylpyrazolo[1,5-a]pyrimidine-2-carboxamide]	282	213
NCCCNC(=O)c1cc2nc(-c3ccccc3)cc(-c3ccccc3)n2n1 [Example 116, N-(3-aminopropyl)-5,7-diphenylpyrazolo[1,5-a]pyrimidine-2-carboxamide]	296	119
O=C(NCC1CCCN1)c1cc2nc(-c3ccccc3)cc(-c3ccccc3)n2n1 (stereo not drawn) [Example 117, 5,7-diphenyl-(pyrrolidin-2-ylmethyl)pyrazolo[1,5-a]pyrimidine-2-carboxamide]	142	197
CNCCCNC(=O)c1cc2nc(-c3ccccc3)cc(-c3ccccc3)n2n1 [Example 118, N-(3-(methylamino)propyl)-5,7-diphenylpyrazolo[1,5-a]pyrimidine-2-carboxamide]	230	103
NCCNC(=O)c1cc2nc(-c3ccccc3)cc(-c3ccccc3)n2n1 [Example 119, N-(2-aminoethyl)-5,7-diphenylpyrazolo[1,5-a]pyrimidine-2-carboxamide hydrochloride]	801	2400

More lines, now with the values ahead:

IC50 [1] [nM]	IC50 [2] [nM]	SMILES
285	289	COc1ccccc1-c1cc(-c2ccccc2)nc2cc(C(=O)NCCCn3ccnc3)nn12 [Example 80, N-(3-(1H-imidazol-1-yl)propyl)-7-(2-methoxyphenyl)-5-phenylpyrazolo[1,5-a]pyrimidine-2-carboxamide]
256	291	COc1cccc(-c2cc(-c3ccccc3)nc3cc(C(=O)NCCCn4ccnc4)nn23)c1 [Example 82, N-(3-(1H-imidazol-1-yl)propyl)-7-(3-methoxyphenyl)-5-phenylpyrazolo[1,5-a]pyrimidine-2-carboxamide]
681	818	Cc1ccc(-c2cc(-c3ccccc3)nc3cc(C(=O)NCCCn4ccnc4)nn23)cc1 [Example 83, N-(3-(1H-imidazol-1-yl)propyl)-5-phenyl-7-(p-tolyl)pyrazolo[1,5-a]pyrimidine-2-carboxamide]
330	1310	O=C(NCCCn1ccnc1)c1cc2nc(-c3ccccc3)cc(-c3ccc4nonc4c3)n2n1 [Example 84, N-(3-(1H-imidazol-1-yl)propyl)-7-(benzo[c][1,2,5]oxadiazol-5-yl)-5-phenylpyrazolo[1,5-a]pyrimidine-2-carboxamide]
812	2370	Cn1ccc(-c2cc(-c3ccccc3)nc3cc(C(=O)NCCCn4ccnc4)nn23)n1 [Example 85, N-(3-(1H-imidazol-1-yl)propyl)-7-(1-methyl-1H-pyrazol-3-yl)-5-phenylpyrazolo[1,5-a]pyrimidine-2-carboxamide]
303	387	O=C(NCCCn1ccnc1)c1cc2nc(-c3ccccc3)cc(-c3cccc(O)c3)n2n1 [Example 87, N-(3-(1H-imidazol-1-yl)propyl)-7-(3-hydroxyphenyl)-5-phenylpyrazolo[1,5-a]pyrimidine-2-carboxamide]
> 31200	2070	CC(=O)Nc1ccc(-c2cc(-c3ccccc3)nc3cc(C(=O)NCCCn4ccnc4)nn23)cc1 [Example 95, N-(3-(1H-imidazol-1-yl)propyl)-7-(4-acetamidophenyl)-5-phenylpyrazolo[1,5-a]pyrimidine-2-carboxamide]
1250	6910	O=C(NCCCn1ccnc1)c1cc2nc(-c3ccccc3)cc(-c3cccnc3)n2n1 [Example 96, N-(3-(1H-imidazol-1-yl)propyl)-5-phenyl-7-(pyridin-3-yl)pyrazolo[1,5-a]pyrimidine-2-carboxamide]
4570	3610	O=C(NCCCn1ccnc1)c1cc2nc(-c3ccccc3)cc(-c3ccncc3)n2n1 [Example 97, N-(3-(1H-imidazol-1-yl)propyl)-5-phenyl-7-(pyridin-4-yl)pyrazolo[1,5-a]pyrimidine-2-carboxamide]
72	181	O=C(NCCCn1ccnc1)c1cc2nc(-c3ccc(C(F)(F)F)cc3)cc(-c3ccccc3)n2n1 [Example 101, N-(3-(1H-imidazol-1-yl)propyl)-7-phenyl-5-(4-(trifluoromethyl)phenyl)pyrazolo[1,5-a]pyrimidine-2-carboxamide]
305	840	O=C(NCCCn1ccnc1)c1cc2nc(-c3ccccc3)cc(C3CCCC3)n2n1 [Example 108, N-(3-(1H-imidazol-1-yl)propyl)-7-cyclopentyl-5-phenylpyrazolo[1,5-a]pyrimidine-2-carboxamide]
956	470	O=C(NCCCn1ccnc1)c1cc2nc(-c3ccccc3)cc(C3CCC3)n2n1 [Example 109, N-(3-(1H-imidazol-1-yl)propyl)-7-cyclobutyl-5-phenylpyrazolo[1,5-a]pyrimidine-2-carboxamide]
1750	3070	O=C(NCCCn1ccnc1)c1cc2nc(-c3ccccc3)cc(C3CCCO3)n2n1 (stereo not drawn) [Example 110, N-(3-(1H-imidazol-1-yl)propyl)-5-phenyl-7-(tetrahydrofuran-2-yl)pyrazolo[1,5-a]pyrimidine-2-carboxamide]
1630	1940	CC(C)Cc1cc(-c2ccccc2)nc2cc(C(=O)NCCCn3ccnc3)nn12 [Example 112, N-(3-(1H-imidazol-1-yl)propyl)-7-isobutyl-5-phenylpyrazolo[1,5-a]pyrimidine-2-carboxamide]
1200	2290	O=C(NCCCn1ccnc1)c1cc2nc(-c3ccccc3)cc(C3CC3)n2n1 [Example 113, N-(3-(1H-imidazol-1-yl)propyl)-7-cyclopropyl-5-phenylpyrazolo[1,5-a]pyrimidine-2-carboxamide]
776	8460	O=C(NCCCn1ccnc1)c1cc2nc(-c3ccccc3)cc(C3CCCCN3)n2n1 (stereo not drawn) [Example 114, N-(3-(1H-imidazo-1-yl)propyl)-5-phenyl-7-(piperidin-2.yl)pyrazolo[1,5-a]pyrimidine-2-carboxamide]
